Target: PARP7 (Homo sapiens (Human), UniProt Q7Z3E1)
Assay: Enzymatic assay for inhibition of PARP7: TR-FRET displacement of biotinylated Probe A from the TIPARP active site
Assay type: binding
Conditions: Table A-1
Outline: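 Compound dose-response series were incubated with TIPARP and biotinylated Probe A, with a final 30 min step at 25 °C. TR-FRET was read at 320 nm excitation, 615/665 nm emission and 90 μs delay, using the 665/615 ratio to measure complex formation. % inhibition was fitted with a floating or fixed (1) Hill coefficient.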

PARP7, sequence (Q7Z3E1 whole entry): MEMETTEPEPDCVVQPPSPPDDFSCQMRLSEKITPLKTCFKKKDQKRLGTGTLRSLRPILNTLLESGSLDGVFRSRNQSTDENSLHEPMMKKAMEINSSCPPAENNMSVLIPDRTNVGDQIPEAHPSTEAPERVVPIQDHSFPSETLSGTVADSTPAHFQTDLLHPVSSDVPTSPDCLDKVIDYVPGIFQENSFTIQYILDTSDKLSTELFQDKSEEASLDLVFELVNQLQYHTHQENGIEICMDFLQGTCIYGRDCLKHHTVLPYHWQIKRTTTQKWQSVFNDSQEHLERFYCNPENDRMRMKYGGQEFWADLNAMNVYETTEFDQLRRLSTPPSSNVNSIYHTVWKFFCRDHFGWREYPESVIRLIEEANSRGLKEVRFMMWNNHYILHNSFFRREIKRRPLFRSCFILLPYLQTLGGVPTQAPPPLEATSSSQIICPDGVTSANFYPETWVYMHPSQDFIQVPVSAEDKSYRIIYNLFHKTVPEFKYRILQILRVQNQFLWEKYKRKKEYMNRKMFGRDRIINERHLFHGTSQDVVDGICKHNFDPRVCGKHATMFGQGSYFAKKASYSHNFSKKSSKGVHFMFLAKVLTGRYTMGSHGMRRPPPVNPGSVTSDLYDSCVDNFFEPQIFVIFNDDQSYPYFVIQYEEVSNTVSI

| IC50 | Compound |
| --- | --- |
| 0.1 to 1 µM | O=C(COC[C@@H]1CCCN1c1cn[nH]c(=O)c1C(F)(F)F)N1CCN(c2ccccn2)CC1 [Example 448, (S)-5-(2-((2-Oxo-2-(4-(pyridin-2-yl)piperazin-1-yl)ethoxy)methyl)pyrrolidin-1-yl)-4-(trifluoromethyl)pyridazin-3(2H)-one] |
| 0.1 to 1 µM | CC(=O)N1CCN(C(=O)c2cccc(OC[C@@H]3CCCN3c3cn[nH]c(=O)c3C(F)(F)F)c2)CC1 [Example 449, (S)-5-(2-((3-(4-Acetylpiperazine-1-carbonyl)phenoxy)methyl)pyrrolidin-1-yl)-4-(trifluoromethyl)pyridazin-3(2H)-one] |
| < 0.1 µM | O=C(CCOC[C@@H]1CCCN1c1cn[nH]c(=O)c1C(F)(F)F)N1CCN(c2ccccn2)CC1 [Example 454, (S)-5-(2-((3-Oxo-3-(4-(pyridin-2-yl)piperazin-1-yl)propoxy)methyl)pyrrolidin-1-yl)-4-(trifluoromethyl)pyridazin-3(2H)-one] |
| < 0.1 µM | N#Cc1ccc(N2CCN(C(=O)c3cccc(NCC4CCCN4c4cn[nH]c(=O)c4C(F)(F)F)c3)CC2)nc1 (stereo not shown) [Example 455, 6-(4-(3-(((1-(6-Oxo-5-(trifluoromethyl)-1,6-dihydropyridazin-4-yl)pyrrolidin-2-yl)methyl)amino)benzoyl)piperazin-1-yl)nicotinonitrile] |
| < 0.1 µM | O=C(CCOC[C@@H]1CCCN1c1cn[nH]c(=O)c1C(F)(F)F)N1CCN(c2ncccn2)CC1 [Example 456, (S)-5-(2-((3-Oxo-3-(4-(pyrimidin-2-yl)piperazin-1-yl)propoxy)methyl)pyrrolidin-1-yl)-4-(trifluoromethyl)pyridazin-3(2H)-one] |
| < 0.1 µM | O=C(CCOC[C@@H]1CCCN1c1cn[nH]c(=O)c1C(F)(F)F)N1CCN(c2ncc(C(F)(F)F)cn2)CC1 [Example 457, (S)-5-(2-((3-Oxo-3-(4-(5-(trifluoromethyl)pyrimidin-2-yl)piperazin-1-yl)propoxy)methyl)pyrrolidin-1-yl)-4-(trifluoromethyl)pyridazin-3(2H)-one] |
| < 0.1 µM | O=C(CCOC[C@@H]1CCCN1c1cn[nH]c(=O)c1C(F)(F)F)N1CCN(c2ccc(C(F)(F)F)cn2)CC1 [Example 458, (S)-5-(2-((3-Oxo-3-(4-(5-(trifluoromethyl)pyridin-2-yl)piperazin-1-yl)propoxy)methyl)pyrrolidin-1-yl)-4-(trifluoromethyl)pyridazin-3(2H)-one] |
| < 0.1 µM | N#Cc1cnc(N2CCN(C(=O)CCOC[C@@H]3CCCN3c3cn[nH]c(=O)c3C(F)(F)F)CC2)nc1 [Example 461, (S)-2-(4-(3-((1-(6-Oxo-5-(trifluoromethyl)-1,6-dihydropyridazin-4-yl)pyrrolidin-2-yl)methoxy)propanoyl)piperazin-1-yl)pyrimidine-5-carbonitrile] |
| < 0.1 µM | N#Cc1ccc(N2CCN(C(=O)CCOC[C@@H]3CCCN3c3cn[nH]c(=O)c3C(F)(F)F)CC2)cc1 [Example 462, (S)-4-(4-(3-((1-(6-Oxo-5-(trifluoromethyl)-1,6-dihydropyridazin-4-yl)pyrrolidin-2-yl)methoxy)propanoyl)piperazin-1-yl)benzonitrile] |
| < 0.1 µM | N#Cc1cccnc1N1CCN(C(=O)CCOC[C@@H]2CCCN2c2cn[nH]c(=O)c2C(F)(F)F)CC1 [Example 463, (S)-2-(4-(3-((1-(6-Oxo-5-(trifluoromethyl)-1,6-dihydropyridazin-4-yl)pyrrolidin-2-yl)methoxy)propanoyl)piperazin-1-yl)nicotinonitrile] |
| < 0.1 µM | N#Cc1ccc(N2CCN(C(=O)CCOC[C@@H]3CCCN3c3cn[nH]c(=O)c3Cl)CC2)nc1 [Example 468, (S)-6-(4-(3-((1-(5-Chloro-6-oxo-1,6-dihydropyridazin-4-yl)pyrrolidin-2-yl)methoxy)propanoyl)piperazin-1-yl)nicotinonitrile] |
| < 0.1 µM | N#Cc1cnc(N2CCN(C(=O)CCOC[C@@H]3CCCN3c3cn[nH]c(=O)c3C(F)(F)F)CC2)cn1 [Example 474, (S)-5-(4-(3-((1-(6-Oxo-5-(trifluoromethyl)-1,6-dihydropyridazin-4-yl)pyrrolidin-2-yl)methoxy)propanoyl)piperazin-1-yl)pyrazine-2-carbonitrile] |
| < 0.1 µM | N#Cc1ccc(N2CCN(C(=O)CCOC[C@@H]3CCCN3c3cn[nH]c(=O)c3C(F)(F)F)CC2)cn1 [Example 475, (S)-5-(4-(3-((1-(6-Oxo-5-(trifluoromethyl)-1,6-dihydropyridazin-4-yl)pyrrolidin-2-yl)methoxy)propanoyl)piperazin-1-yl)picolinonitrile] |

More lines, now with the values behind:

| Compound | IC50 |
| --- | --- |
| CC1CN(c2ccc(C#N)cn2)CCN1C(=O)c1cccc(OC[C@@H]2CCCN2c2cn[nH]c(=O)c2C(F)(F)F)c1 (stereo partly drawn) [Example 450, 6-(3-methyl-4-(3-(((S)-1-(6-Oxo-5-(trifluoromethyl)-1,6-dihydropyridazin-4-yl)pyrrolidin-2-yl)methoxy)benzoyl)piperazin-1-yl)nicotinonitrile] | < 0.1 µM |
| O=C(c1cccc(OC[C@@H]2CCCN2c2cn[nH]c(=O)c2C(F)(F)F)c1)N1CCn2cnnc2C1 [Example 451, (S)-5-(2-((3-(5,6,7,8-Tetrahydro-[1,2,4]triazolo[4,3-a]pyrazine-7-carbonyl)phenoxy)methyl)pyrrolidin-1-yl)-4-(trifluoromethyl)pyridazin-3(2H)-one] | 0.1 to 1 µM |
| N#Cc1ccc(N2CCN(C(=O)c3cccc(OC[C@@H]4C[C@H](C#N)CN4c4cn[nH]c(=O)c4C(F)(F)F)c3)CC2)nc1 [Example 452, 6-(4-(3-(((2S,4S)-4-Cyano-1-(6-oxo-5-(trifluoromethyl)-1,6-dihydropyridazin-4-yl)pyrrolidin-2-yl)methoxy)benzoyl)piperazin-1-yl)nicotinonitrile] | < 0.1 µM |
| N#CCc1ccc(N2CCN(C(=O)c3cccc(OC[C@@H]4CCCN4c4cn[nH]c(=O)c4C(F)(F)F)c3)CC2)cc1 [Example 453, (S)-2-(4-(4-(3-((1-(6-Oxo-5-(trifluoromethyl)-1,6-dihydropyridazin-4-yl)pyrrolidin-2-yl)methoxy)benzoyl)piperazin-1-yl)phenyl)acetonitrile] | < 0.1 µM |
| C[C@H]1CCN(c2cn[nH]c(=O)c2C(F)(F)F)[C@H]1COc1cccc(C(=O)N2CCN(c3ccc(C#N)cn3)CC2)c1 [Example 459, 6-(4-(3-(((2R,3S)-3-methyl-1-(6-oxo-5-(trifluoromethyl)-1,6-dihydropyridazin-4-yl)pyrrolidin-2-yl)methoxy)benzoyl)piperazin-1-yl)nicotinonitrile] | 0.1 to 1 µM |
| C[C@@H]1CCN(c2cn[nH]c(=O)c2C(F)(F)F)[C@@H]1COc1cccc(C(=O)N2CCN(c3ccc(C#N)cn3)CC2)c1 [Example 460, 6-(4-(3-(((2S,3R)-3-methyl-1-(6-oxo-5-(trifluoromethyl)-1,6-dihydropyridazin-4-yl)pyrrolidin-2-yl)methoxy)benzoyl)piperazin-1-yl)nicotinonitrile] | < 0.1 µM |
| N#Cc1ccc(N2CCN(C(=O)c3cccc(OC[C@@H]4C[C@@H](C#N)CN4c4cn[nH]c(=O)c4C(F)(F)F)c3)CC2)nc1 [Example 464, 6-(4-(3-(((2S,4R)-4-Cyano-1-(6-oxo-5-(trifluoromethyl)-1,6-dihydropyridazin-4-yl)pyrrolidin-2-yl)methoxy)benzoyl)piperazin-1-yl)nicotinonitrile] | ≥ 1 µM |
| N#Cc1ccc(N2CCN(C(=O)c3ccc(OCCOCC4CCN(c5cn[nH]c(=O)c5C(F)(F)F)C4)cc3)CC2)nc1 (stereo not shown) [Example 465, 6-(4-(4-(2-((1-(6-Oxo-5-(trifluoromethyl)-1,6-dihydropyridazin-4-yl)pyrrolidin-3-yl)methoxy)ethoxy)benzoyl)piperazin-1-yl)nicotinonitrile] | < 0.1 µM |
| N#Cc1ccc(N2CCN(C(=O)CCOCCOCC3CCN(c4cn[nH]c(=O)c4C(F)(F)F)C3)CC2)nc1 (stereo not shown) [Example 466, 6-(4-(3-(2-((1-(6-Oxo-5-(trifluoromethyl)-1,6-dihydropyridazin-4-yl)pyrrolidin-3-yl)methoxy)ethoxy)propanoyl)piperazin-1-yl)nicotinonitrile] | < 0.1 µM |
| N#Cc1ccc(N2CCN(C(=O)c3cccc(OCCOCC4CCN(c5cn[nH]c(=O)c5C(F)(F)F)C4)c3)CC2)nc1 (stereo not shown) [Example 467, 6-(4-(3-(2-((1-(6-Oxo-5-(trifluoromethyl)-1,6-dihydropyridazin-4-yl)pyrrolidin-3-yl)methoxy)ethoxy)benzoyl)piperazin-1-yl)nicotinonitrile] | < 0.1 µM |
| N#Cc1ccc(N2CCN(C(=O)c3cccc(OCC4CCN(c5cn[nH]c(=O)c5C(F)(F)F)C4)c3)CC2)nc1 (stereo not shown) [Example 469, 6-(4-(3-((1-(6-Oxo-5-(trifluoromethyl)-1,6-dihydropyridazin-4-yl)pyrrolidin-3-yl)methoxy)benzoyl)piperazin-1-yl)nicotinonitrile] | < 0.1 µM |
| N#Cc1ccc(N2CCN(C(=O)c3cccc(OCCOC[C@@H]4CCN(c5cn[nH]c(=O)c5C(F)(F)F)C4)c3)CC2)nc1 [Example 470, (R)-6-(4-(3-(2-((1-(6-Oxo-5-(trifluoromethyl)-1,6-dihydropyridazin-4-yl)pyrrolidin-3-yl)methoxy)ethoxy)benzoyl)piperazin-1-yl)nicotinonitrile] | < 0.1 µM |
| N#Cc1ccc(N2CCN(C(=O)c3cccc(OCCOC[C@H]4CCN(c5cn[nH]c(=O)c5C(F)(F)F)C4)c3)CC2)nc1 [Example 471, (S)-6-(4-(3-(2-((1-(6-oxo-5-(trifluoromethyl)-1,6-dihydropyridazin-4-yl)pyrrolidin-3-yl)methoxy)ethoxy)benzoyl)piperazin-1-yl)nicotinonitrile] | < 0.1 µM |
| C#CCOC[C@@H]1CCCN1c1cn[nH]c(=O)c1C(F)(F)F [Example 472, (S)-5-(2-((prop-2-yn-1-yloxy)methyl)pyrrolidin-1-yl)-4-(trifluoromethyl)pyridazin-3(2H)-one] | ≥ 1 µM |
| CC1CN(c2ccc(C#N)cn2)CCN1C(=O)CCOC[C@@H]1CCCN1c1cn[nH]c(=O)c1C(F)(F)F (stereo partly drawn) [Example 473, 6-(3 -Methyl-4-(3-(((S)-1-(6-oxo-5-(trifluoromethyl)-1,6-dihydropyridazin-4-yl)pyrrolidin-2-yl)methoxy)propanoyl)piperazin-1-yl)nicotinonitrile] | < 0.1 µM |
